Molecular target: T1, human PDE4B1 (Homo sapiens, UniProt Q07343)
T1 construct: host or cells: Sf9 cells
Experiment: cAMP HTRF assay to determine the activity of hPDE4B1
Type: biochemical
Details: for IC50: dose response measurements with eight concentrations, reported as ranges, read-out: IC50
Method: cAMP HTRF® Assay to Determine the Activity of hPDE4B1
The inhibiting effect of the compounds on the enzyme activity of human PDE4B1 was measured by the quantification of 5′-adenosine monophosphate (5′-AMP), which is formed from 3′,5′-cyclic adenosine monophosphate (cAMP). Human recombinant enzyme, expressed in Sf9 cells, and the HTRF (homogeneous time-resolved fluorescence) detection method were used in the assay.
The test compound or water (control) was mixed with the human recombinant PDE4B1 enzyme (4.8 U) in a buffer consisting of 44.4 mM tris-HCl, 5.28 mM MgCl2, 2.64 mM DTT and 0.044% Tween 20 (pH 7.8). After adding the cAMP enzyme substrate (final concentration 40 nM), the mixture was incubated for 30 minutes at room temperature. Then a fluorescence acceptor (Dye2 marked with cAMP), a fluorescence donor (anti-cAMP antibody marked with a europium cryptate) and the non-specific phosphodiesterase inhibitor IBMX (3-isobutyl-1-methylxanthine; final concentration 1 mM) were added. After 60 minutes the fluorescence transfer, which correlates with the amount of remaining cAMP, was measured with a microplate reader (Rubystar, BMG) at λex=337 nm, λem=620 nm and λem=665 nm. The enzyme activity was calculated from the quotient formed from the measured signal at 665 nm and that at 620 nm. The result was expressed as the percentage inhibition of enzyme activity of the control (without PDE4 inhibitor). The enzyme was omitted for measurement of the basal control.
IC50 values (IC50=concentration causing a half-maximal inhibition of control specific activity) were derived from dose response measurements with eight different concentrations (n=2; N=1-2).
Literature: N. Saldou et al., Comparison of recombinant human PDE4 isoforms: interaction with substrate and inhibitors, Cell. Signal. Vol. 10, No. 6, 427-440, 1998

[1] = Percentage inhibition of PDE4B at 1 μM test concentration

T1 sequence (Q07343 whole entry): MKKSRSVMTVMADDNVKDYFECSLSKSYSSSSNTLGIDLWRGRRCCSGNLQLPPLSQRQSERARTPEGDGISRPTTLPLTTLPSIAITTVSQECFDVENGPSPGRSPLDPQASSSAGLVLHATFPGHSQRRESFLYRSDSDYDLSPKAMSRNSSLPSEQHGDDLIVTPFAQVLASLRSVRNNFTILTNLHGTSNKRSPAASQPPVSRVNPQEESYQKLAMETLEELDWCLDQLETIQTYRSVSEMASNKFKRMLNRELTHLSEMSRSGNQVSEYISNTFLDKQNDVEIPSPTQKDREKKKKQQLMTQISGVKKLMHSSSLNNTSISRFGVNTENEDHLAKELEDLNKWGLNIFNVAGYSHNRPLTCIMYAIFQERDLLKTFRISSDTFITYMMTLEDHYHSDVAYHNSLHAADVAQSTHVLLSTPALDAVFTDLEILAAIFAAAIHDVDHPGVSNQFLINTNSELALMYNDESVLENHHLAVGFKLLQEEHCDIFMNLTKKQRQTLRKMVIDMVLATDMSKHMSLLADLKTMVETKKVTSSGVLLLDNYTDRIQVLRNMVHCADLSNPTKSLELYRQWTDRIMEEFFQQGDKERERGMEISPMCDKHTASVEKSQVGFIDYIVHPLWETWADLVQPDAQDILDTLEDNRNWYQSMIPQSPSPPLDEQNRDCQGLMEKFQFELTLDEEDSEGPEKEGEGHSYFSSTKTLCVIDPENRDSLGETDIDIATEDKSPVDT

SMILES	inhibition at 1 µM [1] [%]	IC50 [nM]	Inhibition at 1 μM test concentration [%] (Percentage inhibition of PDE4B at 1 μM test concentration, 1 µM)
O=C(O)c1ccc2c(c1)ncn2-c1nc(-c2ccc(Cl)s2)nc2c1CCC2 (single isomer, unassigned) [Compound No. 1-63, 1-(2-(5-Chlorothiophen-2-yl)-6,7-dihydro-5H-cyclopenta[d]pyrimidin-4-yl)-1H-benzo[d]imidazole-5-carboxylic acid]	35	–	–
O=C(O)c1ccc2ncn(-c3nc(-c4ccc(Cl)s4)nc4c3CCC4)c2c1 (single isomer, unassigned) [Compound No. 1-74, 1-(2-(5-Chlorothiophen-2-yl)-6,7-dihydro-5H-cyclopenta[d]pyrimidin-4-yl)-1H-benzo[d]imidazole-6-carboxylic acid]	31	–	–
CN(C)C(=O)COc1ccc2ncn(-c3nc(-c4ccc(Cl)s4)nc4c3C[S+]([O-])C4)c2c1 (single isomer, unassigned) [Compound No. 2-74, 2-((1-(2-(5-Chlorothiophen-2-yl)-6-oxido-5,7-dihydrothieno[3,4-d]pyrimidin-4-yl)-1H-benzo[d]imidazol-6-yl)oxy)-N,N-dimethylacetamide]	80	100 to 1000	–
CN(C)C(=O)COc1ccc2c(c1)ncn2-c1nc(-c2ccc(Cl)s2)nc2c1C[S+]([O-])C2 (single isomer, unassigned) [Compound No. 2-75, 2-((1-(2-(5-Chlorothiophen-2-yl)-6-oxido-5,7-dihydrothieno[3,4-d]pyrimidin-4-yl)-1H-benzo[d]imidazol-5-yl)oxy)-N,N-dimethylacetamide]	39	–	–
COc1ccc(-c2nc3c(c(N4CCc5ccc(OCC(=O)N(C)C)cc54)n2)C[S+]([O-])C3)cc1 (centres unmarked) [2-18, 2-((1-(2-(4-Methoxyphenyl)-6-oxido-5,7-dihydrothieno[3,4-d]pyrimidin-4-yl)indolin-6-yl)oxy)-N,N-dimethylacetamide]	105	< 100	–
COc1ccc(-c2nc3c(c(N4CCc5ccc(OCC(=O)N(C)C)cc54)n2)C[S+]([O-])C3)cc1 (centres unmarked) [2-20, 2-[[1-[2-(4-Methoxyphenyl)-6-oxo-5,7-dihydro-thieno[3,4-d]pyrimidin-4-yl]-2,3-dihydro-1H-indol-6-yl]oxy]-N,N-dimethyl-acetamide]	–	–	98
CN(C)C(=O)COc1ccc2c(c1)N(c1nc(-c3cccc(F)c3)nc3c1C[S+]([O-])C3)CC2 (centres unmarked) [2-24, 2-[[1-[2-(3-Fluorophenyl)-6-oxo-5,7-dihydro-thieno[3,4-d]pyrimidin-4-yl]-2,3-dihydro-1H-indol-6-yl]oxy]-N,N-dimethyl-acetamide]	115	< 100	–
COc1ccc(-c2nc3c(c(N4CCc5ccc(OCC(=O)N(C)C)cc54)n2)CSC3)cc1Cl [2-31]	–	< 100	–
CN(C)C(=O)COc1ccc2c(c1)N(c1nc(-c3ccc(F)s3)nc3c1C[S+]([O-])C3)CC2 (centres unmarked) [2-48, 2-((1-(2-(5-Fluorothiophen-2-yl)-6-oxido-5,7-dihydrothieno[3,4-d]pyrimidin-4-yl)indolin-6-yl)oxy)-N,N-dimethylacetamide]	94	< 100	–
O=C(COc1ccc2c(c1)N(c1nc(-c3ccc(Cl)s3)nc3c1CS(=O)(=O)C3)CC2)NCCO [2-62, 2-((1-(2-(5-Chlorothiophen-2-yl)-6,6-dioxido-5,7-dihydrothieno[3,4-d]pyrimidin-4-yl)indolin-6-yl)oxy)-N-(2-hydroxyethyl)acetamide]	91	< 100	–
CN(C)C(=O)COc1ccc2oc(=O)n(-c3nc(-c4ccc(Cl)s4)nc4c3C[S+]([O-])C4)c2c1 (centres unmarked) [2-76, 2-((3-(2-(5-Chlorothiophen-2-yl)-6-oxido-5,7-dihydrothieno[3,4-d]pyrimidin-4-yl)-2-oxo-2,3-dihydrobenzo[d]oxazol-5-yl)oxy)-N,N-dimethylacetamide]	62	100 to 1000	–
CN(C)C(=O)COc1ccc2c(c1)N(c1nc(-c3ccc(C(N)=O)s3)nc3c1CCC3)CC2 [2-85, 5-(4-(6-(2-(Dimethylamino)-2-oxoethoxy)indolin-1-yl)-6,7-dihydro-5H-cyclopenta[d]pyrimidin-2-yl)thiophene-2-carboxamide]	99	–	–
Cc1ccc(-c2nc3c(c(N4CCc5ccc(OCC(=O)N(C)C)cc54)n2)C[S+]([O-])C3)cc1 (centres unmarked) [2-87, N,N-Dimethyl-2-[[1-(6-oxo-2-p-tolyl-5,7-dihydro-thieno[3,4-d]pyrimidin-4-yl)-2,3-dihydro-1H-indol-6-yl]oxy]-acetamide]	112	< 100	–
COc1ccccc1-c1nc2c(c(N3CCc4ccc(OCC(=O)N(C)C)cc43)n1)C[S+]([O-])C2 (centres unmarked) [2-88, 2-[[1-[2-(2-Methoxyphenyl)-6-oxo-5,7-dihydro-thieno[3,4-d]pyrimidin-4-yl]-2,3-dihydro-1H-indol-6-yl]oxy]-N,N-dimethyl-acetamide]	73	100 to 1000	–
CN(C)C(=O)COc1ccc2c(c1)N(c1nc(-c3cccc(Cl)c3)nc3c1C[S+]([O-])C3)CC2 (centres unmarked) [2-89, 2-[[1-[2-(3-Chlorophenyl)-6-oxo-5,7-dihydro-thieno[3,4-d]pyrimidin-4-yl]-2,3-dihydro-1H-indol-6-yl]oxy]-N,N-dimethyl-acetamide]	119	< 100	–
CN(C)C(=O)COc1ccc2c(c1)N(c1nc(-c3ccc(Cl)cc3)nc3c1C[S+]([O-])C3)CC2 (centres unmarked) [2-90, 2-[[1-[2-(4-Chlorophenyl)-6-oxo-5,7-dihydro-thieno[3,4-d]pyrimidin-4-yl]-2,3-dihydro-1H-indol-6-yl]oxy]-N,N-dimethyl-acetamide]	117	< 100	–
COc1cccc(-c2nc3c(c(N4CCc5ccc(OCC(=O)N(C)C)cc54)n2)C[S+]([O-])C3)c1 (centres unmarked) [2-91, 2-[[1-[2-(3-Methoxyphenyl)-6-oxo-5,7-dihydro-thieno[3,4-d]pyrimidin-4-yl]-2,3-dihydro-1H-indol-6-yl]oxy]-N,N-dimethyl-acetamide]	117	< 100	–
CN(C)C(=O)COc1ccc2c(c1)N(c1nc(-c3ccc(C#N)cc3)nc3c1C[S+]([O-])C3)CC2 (centres unmarked) [2-92, 2-[[1-[2-(4-Cyano-phenyl)-6-oxo-5,7-dihydro-thieno[3,4-d]pyrimidin-4-yl]-2,3-dihydro-1H-indol-6-yl]oxy]-N,N-dimethyl-acetamide]	97	< 100	–
CN(C)C(=O)COc1ccc2c(c1)N(c1nc(-c3ccccc3)nc3c1C[S+]([O-])C3)CC2 (centres unmarked) [2-93, N,N-Dimethyl-2-[[1-(6-oxo-2-phenyl-5,7-dihydro-thieno[3,4-d]pyrimidin-4-yl)-2,3-dihydro-1H-indol-6-yl]oxy]-acetamide]	121	< 100	–
Cc1ccccc1-c1nc2c(c(N3CCc4ccc(OCC(=O)N(C)C)cc43)n1)C[S+]([O-])C2 (centres unmarked) [2-94, N,N-Dimethyl-2-[[1-(2-o-tolyl-6-oxo-5,7-dihydro-thieno[3,4-d]pyrimidin-4-yl)-2,3-dihydro-1H-indol-6-yl]oxy]-acetamide]	91	100 to 1000	–
Cc1cccc(-c2nc3c(c(N4CCc5ccc(OCC(=O)N(C)C)cc54)n2)C[S+]([O-])C3)c1 (centres unmarked) [2-95, N,N-Dimethyl-2-[[1-(2-m-tolyl-6-oxo-5,7-dihydro-thieno[3,4-d]pyrimidin-4-yl)-2,3-dihydro-1H-indol-6-yl]oxy]-acetamide]	113	< 100	–
CN(C)C(=O)COc1ccc2c(c1)N(c1nc(-c3ccccc3Cl)nc3c1C[S+]([O-])C3)CC2 (centres unmarked) [2-96, 2-[[1-[2-(2-Chlorophenyl)-6-oxo-5,7-dihydro-thieno[3,4-d]pyrimidin-4-yl]-2,3-dihydro-1H-indol-6-yl]oxy]-N,N-dimethyl-acetamide]	107	< 100	–
CN(C)C(=O)COc1ccc2c(c1)N(c1nc(-c3ccccc3C(F)(F)F)nc3c1C[S+]([O-])C3)CC2 (centres unmarked) [2-97, N,N-Dimethyl-2-[[1-[6-oxo-2-[2-(trifluoromethyl)-phenyl]-5,7-dihydro-thieno[3,4-d]pyrimidin-4-yl]-2,3-dihydro-1H-indol-6-yl]oxy]-acetamide]	93	100 to 1000	–
CN(C)C(=O)COc1ccc2c(c1)N(c1nc(-c3cccc(C#N)c3)nc3c1C[S+]([O-])C3)CC2 (centres unmarked) [2-98, 2-[[1-[2-(3-Cyano-phenyl)-6-oxo-5,7-dihydro-thieno[3,4-d]pyrimidin-4-yl]-2,3-dihydro-1H-indol-6-yl]oxy]-N,N-dimethyl-acetamide]	98	< 100	–
CN(C)C(=O)COc1ccc2c(c1)N(c1nc(-c3ccc(F)cc3)nc3c1C[S+]([O-])C3)CC2 (centres unmarked) [2-99, 2-[[1-[2-(4-Fluorophenyl)-6-oxo-5,7-dihydro-thieno[3,4-d]pyrimidin-4-yl]-2,3-dihydro-1H-indol-6-yl]oxy]-N,N-dimethyl-acetamide]	104	< 100	–

Reference: patent US9527832B2, “Substituted condensed pyrimidine compounds” (GRÜNENTHAL GMBH, priority 2013, dated 2016)
